Here are results for three compounds from ChEMBL document CHEMBL1125236 (J Med Chem, 1991).

Experiment [1] concerns L1210. Kind of experiment: In vivo activity against L1210 leukemia cells in mice at a dose of 12 mg/kg and expressed as Survival median in days as experiment 2. In kind it is functional, Mus musculus.
Experiment [2] has as its system L1210. The experiment can be described thus: In vivo activity against L1210 leukemia cells in mice at a dose of 4 mg/kg and expressed as Survival median in days as experiment 1. In kind it is functional, Mus musculus.
Experiment [3] deals with L1210. Kind of experiment: In vivo activity against L1210 leukemia cells in mice at a dose of 4 mg/kg and expressed as Survival median in days as experiment 3. It counts as functional, Mus musculus.
The subject of experiment [4] is L1210. The experiment can be described thus: In vivo activity against L1210 leukemia cells in mice at a dose of 12 mg/kg and expressed as Survival median in days as experiment 3. It counts as functional, Mus musculus.
The test system of experiment [5] is L1210. Kind of experiment: In vivo activity against L1210 leukemia cells in mice at a dose of 16 mg/kg and expressed as Survival median in days as experiment 1. In kind it is functional, Mus musculus.
The subject of experiment [6] is L1210. Kind of experiment: In vivo activity against L1210 leukemia cells in mice at a dose of 16 mg/kg and expressed as Survival median in days as experiment 2. It counts as functional, Mus musculus.
Experiment [7] concerns L1210. Kind of experiment: In vivo activity against L1210 leukemia cells in mice at a dose of 16 mg/kg and expressed as Survival median in days as experiment 3. In kind it is functional, Mus musculus.
In experiment [8] the test system is L1210. Kind of experiment: In vivo activity against L1210 leukemia cells in mice at a dose of 20 mg/kg and expressed as Survival median in days as experiment 2. In kind it is functional, Mus musculus.
Experiment [9] has as its system L1210. The experiment can be described thus: In vivo activity against L1210 leukemia cells in mice at a dose of 2 mg/kg and expressed as Survival median in days as experiment 1. It counts as functional, Mus musculus.
The test system of experiment [10] is L1210. The experiment can be described thus: In vivo activity against L1210 leukemia cells in mice at a dose of 32 mg/kg and expressed as Survival median in days as experiment 1. In kind it is functional, Mus musculus.
Experiment [11] deals with L1210. Kind of experiment: Antitumor activity (T/C) evaluated against L1210 leukemia from the median survival time of treated mice (T) over that of control mice (C) at a dose of 4 mg/kg as experiment 1. In kind it is functional, Mus musculus.
Experiment [12] relates to L1210. Kind of experiment: Antitumor activity (T/C) evaluated against L1210 leukemia from the median survival time of treated mice (T) over that of control mice (C) at a dose of 4 mg/kg as experiment 3. In kind it is functional, Mus musculus.
The test system of experiment [13] is L1210. The experiment can be described thus: Antitumor activity (T/C) evaluated against L1210 leukemia from the median survival time of treated mice (T) over that of control mice (C) at a dose of 8 mg/kg as experiment 3. It counts as functional, Mus musculus.
In experiment [14] the test system is L1210. The experiment can be described thus: In vivo activity against L1210 leukemia cells in mice at a dose of 12 mg/kg and expressed as percent weight change after 7 days as experiment 2. It counts as functional, Mus musculus.
Experiment [15] has as its system L1210. Kind of experiment: In vivo activity against L1210 leukemia cells in mice at a dose of 8 mg/kg and expressed as Survival median in days as experiment 1. In kind it is functional, Mus musculus.
The test system of experiment [16] is L1210. The experiment can be described thus: In vivo activity against L1210 leukemia cells in mice at a dose of 8 mg/kg and expressed as Survival median in days as experiment 3. It counts as functional, Mus musculus.
Experiment [17] has as its system L1210. The experiment can be described thus: In vivo activity against L1210 leukemia cells in mice at a dose of 4 mg/kg and expressed as Survival range in days as experiment 1. In kind it is functional, Mus musculus.
Experiment [18] concerns L1210. The experiment can be described thus: Antitumor activity (T/C) evaluated against L1210 leukemia from the median survival time of treated mice (T) over that of control mice (C) at a dose of 12 mg/kg as experiment 2. In kind it is functional, Mus musculus.
Experiment [19] has as its system L1210. Kind of experiment: Antitumor activity (T/C) evaluated against L1210 leukemia from the median survival time of treated mice (T) over that of control mice (C) at a dose of 12 mg/kg as experiment 3. It counts as functional, Mus musculus.
Experiment [20] concerns L1210. The experiment can be described thus: Antitumor activity (T/C) evaluated against L1210 leukemia from the median survival time of treated mice (T) over that of control mice (C) at a dose of 16 mg/kg as experiment 1. It counts as functional, Mus musculus.
Experiment [21] has as its system L1210. Kind of experiment: Antitumor activity (T/C) evaluated against L1210 leukemia from the median survival time of treated mice (T) over that of control mice (C) at a dose of 16 mg/kg as experiment 2. It counts as functional, Mus musculus.
Experiment [22] concerns L1210. The experiment can be described thus: Antitumor activity (T/C) evaluated against L1210 leukemia from the median survival time of treated mice (T) over that of control mice (C) at a dose of 16 mg/kg as experiment 3. It counts as functional, Mus musculus.
Experiment [23] deals with L1210. The experiment can be described thus: Antitumor activity (T/C) evaluated against L1210 leukemia from the median survival time of treated mice (T) over that of control mice (C) at a dose of 2 mg/kg as experiment 1. It counts as functional, Mus musculus.
The subject of experiment [24] is L1210. The experiment can be described thus: Antitumor activity (T/C) evaluated against L1210 leukemia from the median survival time of treated mice (T) over that of control mice (C) at a dose of 20 mg/kg as experiment 2. In kind it is functional, Mus musculus.
The test system of experiment [25] is L1210. The experiment can be described thus: Antitumor activity (T/C) evaluated against L1210 leukemia from the median survival time of treated mice (T) over that of control mice (C) at a dose of 24 mg/kg as experiment 2. In kind it is functional, Mus musculus.
In experiment [26] the test system is L1210. Kind of experiment: Antitumor activity (T/C) evaluated against L1210 leukemia from the median survival time of treated mice (T) over that of control mice (C) at a dose of 32 mg/kg as experiment 1. It counts as functional, Mus musculus.
Experiment [27] relates to L1210. Kind of experiment: In vivo activity against L1210 leukemia cells in mice at a dose of 12 mg/kg and expressed as percent weight change after 7 days as experiment 3. It counts as functional, Mus musculus.
In experiment [28] the test system is L1210. The experiment can be described thus: In vivo activity against L1210 leukemia cells in mice at a dose of 16 mg/kg and expressed as percent weight change after 7 days as experiment 1. In kind it is functional, Mus musculus.
Experiment [29] deals with L1210. The experiment can be described thus: In vivo activity against L1210 leukemia cells in mice at a dose of 16 mg/kg and expressed as percent weight change after 7 days as experiment 2. It counts as functional, Mus musculus.
The subject of experiment [30] is L1210. Kind of experiment: In vivo activity against L1210 leukemia cells in mice at a dose of 16 mg/kg and expressed as percent weight change after 7 days as experiment 3. It counts as functional, Mus musculus.
In experiment [31] the test system is L1210. The experiment can be described thus: In vivo activity against L1210 leukemia cells in mice at a dose of 20 mg/kg and expressed as percent weight change after 7 days as experiment 2. In kind it is functional, Mus musculus.
The subject of experiment [32] is L1210. Kind of experiment: In vivo activity against L1210 leukemia cells in mice at a dose of 24 mg/kg and expressed as percent weight change after 7 days as experiment 2. In kind it is functional, Mus musculus.
The test system of experiment [33] is L1210. The experiment can be described thus: In vivo activity against L1210 leukemia cells in mice at a dose of 2 mg/kg and expressed as percent weight change after 7 days as experiment 1. In kind it is functional, Mus musculus.
Experiment [34] concerns L1210. Kind of experiment: In vivo activity against L1210 leukemia cells in mice at a dose of 32 mg/kg and expressed as percent weight change after 7 days as experiment 1. It counts as functional, Mus musculus.
For experiment [35], the system named is L1210. The experiment can be described thus: In vivo activity against L1210 leukemia cells in mice at a dose of 4 mg/kg and expressed as percent weight change after 7 days as experiment 1. In kind it is functional, Mus musculus.
For experiment [36], the system named is L1210. Kind of experiment: In vivo activity against L1210 leukemia cells in mice at a dose of 4 mg/kg and expressed as percent weight change after 7 days as experiment 3. In kind it is functional, Mus musculus.
Experiment [37] deals with L1210. Kind of experiment: In vivo activity against L1210 leukemia cells in mice at a dose of 8 mg/kg and expressed as percent weight change after 7 days as experiment 1. In kind it is functional, Mus musculus.
Experiment [38] relates to L1210. The experiment can be described thus: In vivo activity against L1210 leukemia cells in mice at a dose of 8 mg/kg and expressed as percent weight change after 7 days as experiment 3. It counts as functional, Mus musculus.
Experiment [39] can be described thus: Compound was evaluated for growth inhibition of WI-L2 cells. It counts as functional, cell-based. The note with it: Homo sapiens, WIL2.
Experiment [40] relates to L1210. Kind of experiment: Antitumor activity (T/C) evaluated against L1210 leukemia from the median survival time of treated mice (T) over that of control mice (C) at a dose of 4 mg/kg. In kind it is functional, Mus musculus.
Experiment [41] deals with L1210. The experiment can be described thus: Antitumor activity (T/C) evaluated against L1210 leukemia from the median survival time of treated mice (T) over that of control mice (C) at a dose of […] as experiment 1. In kind it is functional, Mus musculus.
For experiment [42], the system named is L1210. The experiment can be described thus: Antitumor activity (T/C) evaluated against L1210 leukemia from the median survival time of treated mice (T) over that of control mice (C) at a dose of 1 mg/kg. In kind it is functional, Mus musculus.
The subject of experiment [43] is L1210. The experiment can be described thus: Antitumor activity (T/C) evaluated against L1210 leukemia from the median survival time of treated mice (T) over that of control mice (C) at a dose of 0.75 mg/kg as experiment 3.

Values joined by “and” are separate entries in the source; they are usually repeats but may differ in a detail not shown here. Identical values can stand only once.

Broadly, the T/C is the ratio of treated to control. Broadly, the IC50 is the concentration that inhibits the measured activity by half. A high value points to weaker potency in that assay. Turning to `Nc1nc(N)c2nc(CNc3ccc(C(=O)NC(CCCNC(=O)c4ccccc4C(=O)O)C(=O)O)cc3)cnc2n1` (centres undefined), the Survival median worked out at 15 days with L1210 [1]; 14 days with L1210 [2]; 17 days with L1210 [3]; 22 days in the experiment on L1210 [4]; 18 days in the experiment with L1210 [5]; 18 days with L1210 [6]. Besides, the Survival median with L1210 [7] was 24 days; in the experiment with L1210 [8], over 21 days; in the experiment with L1210 [9], 13 days; with L1210 [10], 11 days; in the experiment on L1210 [15] it was 15 days; in the experiment on L1210 [16] it was 20 days. The T/C in the experiment on L1210 [11] was 175%; in the experiment with L1210 [12], 213%; in the experiment on L1210 [13], 250%; with L1210 [18], 188%; in the experiment with L1210 [19] it was 275%; in the experiment with L1210 [20], 188% and 225%. Besides, the T/C with L1210 [21] is 225%; in the experiment with L1210 [22], 300%; in the experiment with L1210 [23], 163%; in the experiment on L1210 [24], over 263%; in the experiment on L1210 [25], 250%; in the experiment on L1210 [26], 138%. Also, the weight change % in the experiment on L1210 [14] was 1%; in the experiment with L1210 [27], 2%; in the experiment on L1210 [28] it was -5%; with L1210 [29], 1%; with L1210 [31], -2%; with L1210 [32] it was -3%. The weight change % is reported as -4% with L1210 [33]; -11% in the experiment with L1210 [34]; -3% in the experiment on L1210 [35]; 8% with L1210 [36]; 4% in the experiment on L1210 [37]; 4% in the experiment with L1210 [38]. The compound further returned a Survival range in the experiment with L1210 [17] of 13 days. Also, the body weight change % with L1210 [30] was -3%. For the same compound, the IC50 in experiment [39] is 48 nM.

As for `CN(Cc1cnc2nc(N)nc(N)c2n1)c1ccc(C(=O)N[C@@H](CCC(=O)O)C(=O)O)cc1` [METHOTREXATE], the T/C with L1210 [40] was 175% and 188% and 200%; with L1210 [41], 213%; in the experiment with L1210 [42], 188%; in the experiment on L1210 [43], 175%.

Turning to `Nc1nc(N)c2nc(CNc3ccc(C(=O)N[C@@H](CCC(=O)O)C(=O)O)cc3)cnc2n1` [AMINOPTERIN], the IC50 in experiment [39] was 7.1 nM.
